“Also recorded” adds a separate entry of the source.
Key:
[1] = system: frataxin; assay: Quantitative real-time RT-PCR of frataxin expression in HEK 293 cells; type: cell-based, human
Protocol: The human cell line HEK 293 (Human Embryonic Kidney) grown in Dulbecco's modified Eagle's medium (DMEM, Sigma) with the addition of 10% foetal bovine serum (FBS) (v/v), glutamine 2 mM, penicillin 100 unit/ml and streptomycin 100 μg/ml is kept in an incubator at a temperature of 37° C. and 5% CO2. Preferably the HEK 293 cells, cultured on 60 mm plates at a concentration of 0.5×10^6, after at least 14 hours of growth have a 70-80% confluence. […] Extraction of the RNA from the cells is performed according to the indications contained in the QIAconnect Gene Expression (Qiagen) kit. Particularly the samples are lysed and homogenated. Ethanol is then added to the treated samples to provide ideal conditions for the bond with the silica-gel RNase membrane. In this way the RNA binds and the contaminants are washed; the pure RNA is concentrated and eluted. The concentration of the extracted RNA is determined by UV spectrophotometric method under suitable reading conditions. The reverse transcription reaction is performed with the GeneAmp RNA PCR core (Applied Biosystems) kit according to the indications provided by the manufacturer. Quantification of the reverse-transcribed product is performed using fluorescent probes capable of hybridizing and specifically pairing DNA regions of interest. The probes used according to the invention are Probe Hs 00175940_m1 and Probe Hs 99999903 ml (Applied Biosystems). Particularly the probe defined Hs 00175940_m1 represents the specific probe able to recognise and hybridize the human frataxin gene, while the probe Hs 99999903 ml recognises the human actin and is useful for normalising the mRNA values of the target. The analyzing step of the results is performed by substituting the mathematical formula 2^−ΔΔCt with the difference between the target threshold cycle in the samples treated and not treated (control) with diazoxide, normalised with the threshold cycle value of the reference gene (actin), in the case in question ΔCt=Ct Hs00175940—m1−Ct Hs99999903—m1. ΔΔCt=ΔCt(treated sample)−ΔCt(control sample) The result of the calculation 2^−ΔΔCt represents the relative quantification value. Said value permits determination of the quantity of frataxin (which represents the target) in the sample treated with diazoxide with respect to the quantity of frataxin in the sample not treated with diazoxide (which represents the control) normalised for the quantity of actin (which represents the reference or internal standard) in the same sample. For example a value of 1 is attributed to the control samples, i.e. HEK 293 cells not treated with diazoxide chosen as references.

[2] = system: frataxin; assay: Western blot analysis of frataxin in cells of FRDA patients; type: cell-based, human; conditions: FRDA patient cells, 24 hours after the initial treatment
Protocol: The cells treated as described in example 1 are lysed with a lysis buffer (0.15 M NaCl, 5 mM EDTA, pH 8, 1% Triton X100, 10 mM Tris-Cl, pH 7.4) and transferred to microcentrifuge tubes. A quantity of approximately 50 μg of cell suspension is separated by electrophoresis in the presence of SDS (sodium dodecyl sulphate) at 17% (denaturing conditions). The resulting product is transferred onto nitrocellulose membranes. Identification of the presence of the target protein, i.e. the frataxin, is performed with a rabbit polyclonal primary antibody directed against said protein (Santa Cruz Biotechnology), and a goat-anti rabbit HRP secondary antibody (Pierce). The reaction was identified with enzymatic method by means of ECL plus system (Amersham). […] It can be seen that the cells of the patients treated according to the invention present an evident band as expression of the quantity of frataxin present with respect to the non-treated control.

[3] = system: frataxin; assay: Quantitative real-time RT-PCR of frataxin expression in immortalized lymphoblastoid cell lines of FRDA patients; type: cell-based, human; conditions: FRDA patient lymphoblastoid cells, 24 hours
Protocol: Extraction of the RNA from the cells is performed according to the indications contained in the QIAconnect Gene Expression (Qiagen) kit. Particularly the samples are lysed and homogenated. Ethanol is then added to the treated samples to provide ideal conditions for the bond with the silica-gel RNase membrane. In this way the RNA binds and the contaminants are washed; the pure RNA is concentrated and eluted. The concentration of the extracted RNA is determined by UV spectrophotometric method under suitable reading conditions. The reverse transcription reaction is performed with the GeneAmp RNA PCR core (Applied Biosystems) kit according to the indications provided by the manufacturer. Quantification of the reverse-transcribed product is performed using fluorescent probes capable of hybridizing and specifically pairing DNA regions of interest. The probes used according to the invention are Probe Hs 00175940_m1 and Probe Hs 99999903 ml (Applied Biosystems). Particularly the probe defined Hs 00175940_m1 represents the specific probe able to recognise and hybridize the human frataxin gene, while the probe Hs 99999903 ml recognises the human actin and is useful for normalising the mRNA values of the target. The analyzing step of the results is performed by substituting the mathematical formula 2^−ΔΔCt with the difference between the target threshold cycle in the samples treated and not treated (control) with diazoxide, normalised with the threshold cycle value of the reference gene (actin), in the case in question ΔCt=Ct Hs00175940—m1−Ct Hs99999903—m1. ΔΔCt=ΔCt(treated sample)−ΔCt(control sample) The result of the calculation 2^−ΔΔCt represents the relative quantification value. Said value permits determination of the quantity of frataxin (which represents the target) in the sample treated with diazoxide with respect to the quantity of frataxin in the sample not treated with diazoxide (which represents the control) normalised for the quantity of actin (which represents the reference or internal standard) in the same sample. The expression level and therefore the quantity of frataxin of cells deriving from immortalized lymphoblastoid cell lines of FRDA patients treated as described in examples 2 and 3 was compared 24 hours after the treatment. […] In particular, the broken vertical line represents the threshold value above which the increase in frataxin expression can be seen. The experiment was conducted testing the cells with concentrations of diazoxide varying from 25 nM to 100 μM in combination with fixed concentrations of glucose 20 mM. The expression and therefore the quantity of frataxin in cells deriving from immortalized lymphoblastoid cell lines of FRDA patients was compared.

[4] = system: frataxin; assay: Western blot analysis of frataxin in HEK 293 cells; type: cell-based, human; conditions: for frataxin expression, western blot: 4 or 5 days after the initial treatment
Protocol: The human cell line HEK 293 (Human Embryonic Kidney) grown in Dulbecco's modified Eagle's medium (DMEM, Sigma) with the addition of 10% foetal bovine serum (FBS) (v/v), glutamine 2 mM, penicillin 100 unit/ml and streptomycin 100 μg/ml is kept in an incubator at a temperature of 37° C. and 5% CO2. Preferably the HEK 293 cells, cultured on 60 mm plates at a concentration of 0.5×10^6, after at least 14 hours of growth have a 70-80% confluence. […] The cells treated as described in example 1 are lysed with a lysis buffer (0.15 M NaCl, 5 mM EDTA, pH 8, 1% Triton X100, 10 mM Tris-Cl, pH 7.4) and transferred to microcentrifuge tubes. A quantity of approximately 50 μg of cell suspension is separated by electrophoresis in the presence of SDS (sodium dodecyl sulphate) at 17% (denaturing conditions). The resulting product is transferred onto nitrocellulose membranes. Identification of the presence of the target protein, i.e. the frataxin, is performed with a rabbit polyclonal primary antibody directed against said protein (Santa Cruz Biotechnology), and a goat-anti rabbit HRP secondary antibody (Pierce). The reaction was identified with enzymatic method by means of ECL plus system (Amersham).

[5] = children treated with ibedenone; cited from earlier work
[6] = diazoxide in combination with glucose
[7] = diazoxide in combination with leucine

Question: For CC1=NS(=O)(=O)c2cc(Cl)ccc2N1 [diazoxide, 7-chloro-3-methyl-4H-1,2,4 benzothiadiazine 1,1-dioxide], which “frataxin expression levels, deviation from the threshold line” value ([1]; HEK 293, diazoxide 100 μM combined with leucine 10 mM, 24 hours) is on record?
Answer: significant deviation from the threshold line

Question: What about the “increase in the quantity of frataxin with respect to the non-treated control over time” value ([1]; HEK 293, diazoxide 100 μM together with glucose 20 mM, 48 and 72 hours after the treatment) of the same compound?
Answer: remains constant

Question: And the “quantity of frataxin / frataxin expression with respect to the non-treated control” value ([1]; HEK 293, diazoxide 100 μM with glucose 20 mM, 24 hours)?
Answer: increased quantity of frataxin; also recorded: significant deviation from the threshold line

Question: What about the “frataxin expression levels, deviation from the threshold line” value ([1]; HEK 293, diazoxide only (25 nM or 100 μM without glucose), 24 hours) of the same compound?
Answer: minimum deviation from the threshold line

Question: And the “frataxin expression, western blot, with respect to the non-treated control” value [2, 6]?
Answer: maintain the increase in expression

Question: What about the “frataxin expression, western blot, with respect to the non-treated control” value [2, 7] of the same compound?
Answer: maintain the increase in expression

Question: And the “frataxin expression levels, deviation from the threshold line” value ([3]; diazoxide 100 μM combined with glucose 20 mM)?
Answer: significant deviation from the threshold line

Question: And the “effect on frataxin expression of the combination” value [3, 6]?
Answer: synergic effect

Question: And the “effect on frataxin expression of the combination” value [3, 7]?
Answer: synergic effect

Question: What about the “frataxin expression levels, deviation from the threshold line” value ([3]; some particular concentrations of diazoxide (25 nM to 100 μM tested) with glucose 20 mM) of the same compound?
Answer: minimum deviation from the threshold line

Question: What about the “frataxin quantity (band intensity) versus control cells” value ([4]; HEK 293, cells treated as in example 1 (diazoxide 100 μM with glucose 20 mM, 24 hours)) of the same compound?
Answer: greater than that of the control cells

Question: And the “frataxin expression, western blot” value [4, 6]?
Answer: maintain the increase in expression

Question: What about the “frataxin expression, western blot” value [4, 7] of the same compound?
Answer: maintain the increase in expression

Question: For COC1=C(OC)C(=O)C(CCCCCCCCCCO)=C(C)C1=O [ibedenone], which “benefits at neurological level” value [5] is on record?
Answer: practically nil

Question: And the “children treated presenting an improvement in some of the symptoms” value [5]?
Answer: 85%

Question: With CC(C)C[C@H](N)C(=O)O [leucine] as the compound, how does the “frataxin expression levels, deviation with respect to the non-treated control” value ([1]; HEK 293, leucine only 10 mM, 24 hours) read?
Answer: minimum deviation with respect to the non-treated control

Reference: patent US8716250B2, “Diazoxide for the treatment of Friedreich's ataxia” (Universita' Degli Studi di Bari, priority 2008, dated 2014)
